Emax, EC50 and IC50 data for 22 compounds are collected here from US20140057895A1, “INDAZOLE- AND PYRROLOPYRIDINE-DERIVATIVE AND PHARMACEUTICAL USE THEREOF” (priority 2011, published 2014).

Molecules are shown by their SMILES.

The target in one assay is T1, human 5-HT4b receptor (Homo sapiens, UniProt Q13639).
T1 construct: expressed in transfected cells; host or cells: CHO cells (G418 selection)
The assay is described as follows: Test Example 4: Serotonin 4 (5-HT4) receptor agonist activity assay, cAMP HTRF in CHO cells (Table 100). Type of assay: cell-based. Particulars: mean value; for Emax: CHO, 0.25 h, intrinsic activity, maximal activity of 5-HT defined as 100%, read-out: IA (%); for EC50: concentration showing 50% of IA. The essentials: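 Read-out is HTRF cAMP (time-resolved fluorescence 620/665 nm after 1 h RT with cAMP-cryptate and cAMP-d2), from recombinant CHO cells bearing human 5-HT4b treated with compound 15 min at 31° C. in Hanks/HEPES buffer pH 7.4. IA (%) scaled to peak 5-HT effect over 10^−11–10^−7 M; EC50 is concentration giving half that IA.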

The target of assay [1] is T2, Human 5-HT4 receptor (5-HT4b) (Homo sapiens, UniProt Q13639).
T2 construct: expressed in transfected cells; membrane preparation
T2 sequence (Q13639 whole entry): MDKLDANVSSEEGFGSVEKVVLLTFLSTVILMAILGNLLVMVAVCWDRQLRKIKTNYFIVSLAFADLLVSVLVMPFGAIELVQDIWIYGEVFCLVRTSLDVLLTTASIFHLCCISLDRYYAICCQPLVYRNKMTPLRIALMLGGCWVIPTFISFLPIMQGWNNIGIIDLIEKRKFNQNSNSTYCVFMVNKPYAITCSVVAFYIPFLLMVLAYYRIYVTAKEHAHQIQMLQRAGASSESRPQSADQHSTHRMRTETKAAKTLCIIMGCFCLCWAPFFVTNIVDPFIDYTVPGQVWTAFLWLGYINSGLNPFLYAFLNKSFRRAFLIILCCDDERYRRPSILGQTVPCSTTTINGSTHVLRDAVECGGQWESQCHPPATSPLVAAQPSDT
The assay is described as follows: Test Example 3: Human 5-HT4 receptor binding assay, membranes of CHO-K1 cells stably expressing 5-HT4b receptors (Table 99). Conditions: mean value of each group. The essentials:
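Radioligand displacement: [3H]-GR113808 (0.1 nM) bound to CHO-K1 5-HT4b membranes for 30 min at 37 °C in Hepes buffer (50 mM, pH 7.4). Specific binding is total minus that with 30 μM serotonin; filter-bound radioactivity counted, IC50 derived from percent inhibition.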

T1 sequence (Q13639 whole entry): as above

As to `CC(C)c1nn(-c2noc(C[C@@H]3CCN(C4CCN(C(=O)CO)CC4)C3)n2)c2c(F)cccc12` [Example 545, 1-{4-[(3S)-3-({3-[7-fluoro-3-(propan-2-yl)-1H-indazol-1-yl]-1,2,4-oxadiazol-5-yl}methyl)pyrrolidin-1-yl]piperidin-1-yl}-2-hydroxyethanone], at human 5-HT4b receptor, the Emax stood at 60% and the 50% effective concentration (EC50) amounted to 5.5 nM. The same compound yielded an IC50 in assay [1] below 20 nM.
On the same counts, the results for `CC(C)c1nn(-c2noc(C[C@@H]3CCN(C[C@@H]4CCCN4C(=O)CO)C3)n2)c2c(F)cccc12` [Example 546, 1-[(2S)-2-{[(3S)-3-({3-[7-fluoro-3-(propan-2-yl)-1H-indazol-1-yl]-1,2,4-oxadiazol-5-yl}methyl)pyrrolidin-1-yl]methyl}pyrrolidin-1-yl]-2-hydroxyethanone] are 63%, 20.1 nM and below 20 nM.
As to `CC(C)c1nn(-c2noc(C[C@@H]3CCN(C[C@H]4CCCN4C(=O)CO)C3)n2)c2c(F)cccc12` [Example 547, 1-[(2R)-2-{[(3S)-3-({3-[7-fluoro-3-(propan-2-yl)-1H-indazol-1-yl]-1,2,4-oxadiazol-5-yl}methyl)pyrrolidin-1-yl]methyl}pyrrolidin-1-yl]-2-hydroxyethanone], on human 5-HT4b receptor, the Emax was determined as 54% and a half-maximal effect (EC50) was put at 14.1 nM. Moreover, in assay [1], the IC50 is below 20 nM.
On to `CC(C)c1nn(-c2noc(C[C@@H]3CCN(CC4CN(C(=O)CO)C4)C3)n2)c2c(F)cccc12` [Example 548, 1-(3-{[(3S)-3-({3-[7-fluoro-3-(propan-2-yl)-1H-indazol-1-yl]-1,2,4-oxadiazol-5-yl}methyl)pyrrolidin-1-yl]methyl}azetidin-1-yl)-2-hydroxyethanone], for which, at human 5-HT4b receptor, the Emax was determined as 73% and the EC50 is 6.4 nM. Further, the IC50 in assay [1] was below 20 nM.
The matching figures for `CC(C)c1nn(-c2noc(C[C@@H]3CCN(C[C@@H]4CCN(C(=O)CO)C4)C3)n2)c2c(F)cccc12` [Example 549, 1-[(3S)-3-{[(3S)-3-({3-[7-fluoro-3-(propan-2-yl)-1H-indazol-1-yl]-1,2,4-oxadiazol-5-yl}methyl)pyrrolidin-1-yl]methyl}pyrrolidin-1-yl]-2-hydroxyethanone]: 91%, 5.6 nM and below 20 nM.
On the same counts, the results for `CC(C)c1nn(-c2noc(C[C@@H]3CCN(C[C@H]4CCN(C(=O)CO)C4)C3)n2)c2c(F)cccc12` [Example 550, 1-[(3R)-3-{[(3S)-3-({3-[7-fluoro-3-(propan-2-yl)-1H-indazol-1-yl]-1,2,4-oxadiazol-5-yl}methyl)pyrrolidin-1-yl]methyl}pyrrolidin-1-yl]-2-hydroxyethanone] are 85%, 5.1 nM and below 20 nM.
The matching figures for `CC(=O)N1CCC(N2CCC(F)(c3nc(-n4nc(C(C)C)c5cccc(F)c54)no3)CC2)CC1` [Example 561, 1-(4-fluoro-4-{3-[7-fluoro-3-(propan-2-yl)-1H-indazol-1-yl]-1,2,4-oxadiazol-5-yl}-1,4′-bipiperidin-1′-yl)ethanone]: 109%, 8.9 nM and 33.3 nM.
Take `CC(=O)NCCCN[C@H]1C[C@@H](c2nc(-n3nc(C(C)C)c4cccc(F)c43)no2)C1` [Example 566]: on human 5-HT4b receptor, the Emax came out at 90% and the EC50 turned out to be 3.1 nM. The compound also showed a half-maximal inhibitory concentration (IC50) in assay [1] below 20 nM.
The matching figures for `CCc1nn(-c2noc(C3CCN(C[C@@H]4CCN(C(=O)CO)C4)CC3)n2)c2c(F)cccc12` [Example 582, 1-[(3S)-3-({4-[3-(3-ethyl-7-fluoro-1H-indazol-1-yl)-1,2,4-oxadiazol-5-yl]piperidin-1-yl}methyl)pyrrolidin-1-yl]-2-hydroxyethanone]: 91%, 3.7 nM and below 20 nM.
For the compound `CCc1nn(-c2noc(C3CCN(C[C@@H]4CCCN4C(=O)CO)CC3)n2)c2c(F)cccc12` [Example 583, 1-[(2S)-2-({4-[3-(3-ethyl-7-fluoro-1H-indazol-1-yl)-1,2,4-oxadiazol-5-yl]piperidin-1-yl}methyl)pyrrolidin-1-yl]-2-hydroxyethanone], at human 5-HT4b receptor, the Emax came out at 84% and a half-maximal response (EC50) required 5.9 nM. For the same compound, the IC50 in assay [1] is below 20 nM.
On the same counts, the results for `CC(C)c1nn(-c2noc(C3CCN(C[C@@H]4CCN(S(C)(=O)=O)C4)CC3)n2)c2c(F)cccc12` [Example 585, 7-fluoro-1-[5-(1-{[(3S)-1-(methylsulfonyl)pyrrolidin-3-yl]methyl}piperidin-4-yl)-1,2,4-oxadiazol-3-yl]-3-(propan-2-yl)-1H-indazole] are 109%, 2.4 nM and below 20 nM.
As to `CC(C)c1nn(-c2noc(C3CCN(C[C@H]4CCN(S(C)(=O)=O)C4)CC3)n2)c2c(F)cccc12` [Example 586, 7-fluoro-1-[5-(1-{[(3R)-1-(methylsulfonyl)pyrrolidin-3-yl]methyl}piperidin-4-yl)-1,2,4-oxadiazol-3-yl]-3-(propan-2-yl)-1H-indazole], at human 5-HT4b receptor, the Emax amounted to 105% and the half-maximal effective concentration (EC50) was 2.2 nM. In assay [1], this compound returned a half-maximal inhibitory concentration (IC50) below 20 nM.
On the same counts, the results for `CC(=O)N1CCC(CN[C@H]2C[C@@H](c3nc(-n4nc(C(C)C)c5cccc(F)c54)no3)C2)CC1` [Example 590, 1-(4-{[(cis-3-{3-[7-fluoro-3-(propan-2-yl)-1H-indazol-1-yl]-1,2,4-oxadiazol-5-yl}cyclobutyl)amino]methyl]piperidin-1-yl)ethanone] are 101%, 2.8 nM and 12.6 nM.
The matching figures for `CC(=O)N1CC[C@H](NC2CC(c3nc(-n4nc(C(C)C)c5cccc(F)c54)no3)C2)C1` (stereo partly drawn) [Example 591, 1-{(3S)-3-[(3-{3-[7-fluoro-3-(propan-2-yl)-1H-indazol-1-yl]-1,2,4-oxadiazol-5-yl}cyclobutyl)amino]pyrrolidin-1-yl}ethanone]: 97%, 2.6 nM and below 20 nM.
Take `CC(=O)N1CCC(N[C@H]2C[C@@H](c3nc(-n4nc(C(C)C)c5cccc(F)c54)no3)C2)CC1` [Example 593, 1-{4-[(cis-3-{3-[7-fluoro-3-(propan-2-yl)-1H-indazol-1-yl]-1,2,4-oxadiazol-5-yl}cyclobutyl)amino]piperidin-1-yl}ethanone]: on human 5-HT4b receptor, the Emax turned out to be 99% and the midpoint of the response, the EC50, lay at 2.7 nM. This compound also gave an IC50 in assay [1] below 20 nM.
The matching figures for `CC(C)c1nn(-c2noc([C@H]3C[C@@H](NCC4CCN(S(C)(=O)=O)CC4)C3)n2)c2c(F)cccc12` [Example 594, cis-3-{3-[7-fluoro-3-(propan-2-yl)-1H-indazol-1-yl]-1,2,4-oxadiazol-5-yl}-N-{[1-(methylsulfonyl)piperidin-4-yl]methyl}cyclobutanamine]: 106%, 2.3 nM and below 20 nM.
On the same counts, the results for `CC(C)c1nn(-c2noc(C3CC(NC4CCOCC4)C3)n2)c2c(F)cccc12` (stereo not drawn) [Example 595, N-(3-{3-[7-fluoro-3-(propan-2-yl)-1H-indazol-1-yl]-1,2,4-oxadiazol-5-yl}cyclobutyl)tetrahydro-2H-pyran-4-amine] are 93%, 6.9 nM and below 20 nM.
Turning to `COCCNC1CC(c2nc(-n3nc(C(C)C)c4cccc(F)c43)no2)C1` (stereo not drawn) [Example 605, 3-{3-[7-fluoro-3-(propan-2-yl)-1H-indazol-1-yl]-1,2,4-oxadiazol-5-yl}-N-(2-methoxyethyl)cyclobutanamine], on human 5-HT4b receptor, the Emax is 113% and a half-maximal effect (EC50) was put at 2.3 nM. Besides, in assay [1], the IC50 was below 20 nM.
The matching figures for `CC(C)c1nn(-c2noc(C3CC(NCC4CCOCC4)C3)n2)c2c(F)cccc12` (stereo not drawn) [Example 610, 3-{3-[7-fluoro-3-(propan-2-yl)-1H-indazol-1-yl]-1,2,4-oxadiazol-5-yl}-N-(tetrahydro-2H-pyran-4-ylmethyl)cyclobutanamine]: 103%, 9.1 nM and below 20 nM.
On the same counts, the results for `CC(=O)NCCN(C1CCOCC1)C1CC(c2nc(-n3nc(C(C)C)c4cccc(F)c43)no2)C1` (stereo not drawn) [Example 611, N-{2-[(3-{3-[7-fluoro-3-(propan-2-yl)-1H-indazol-1-yl]-1,2,4-oxadiazol-5-yl}cyclobutyl)(tetrahydro-2H-pyran-4-yl)amino]ethyl}acetamide] are 94%, 42.2 nM and 95.9 nM.
The matching figures for `COCCN(CC1CCCO1)C1CC(c2nc(-n3nc(C(C)C)c4cccc(F)c43)no2)C1` (stereo not drawn) [Example 612, 3-{3-[7-fluoro-3-(propan-2-yl)-1H-indazol-1-yl]-1,2,4-oxadiazol-5-yl}-N-(2-methoxyethyl)-N-(tetrahydrofuran-2-ylmethyl)cyclobutanamine]: 82%, 14.6 nM and 20.5 nM.
Turning to `COCCN(C1CCOCC1)[C@H]1C[C@@H](c2nc(-n3nc(C(C)C)c4cccc(F)c43)no2)C1` [Example 614, N-(cis-3-{3-[7-fluoro-3-(propan-2-yl)-1H-indazol-1-yl]-1,2,4-oxadiazol-5-yl}cyclobutyl)-N-(2-methoxyethyl)tetrahydro-2H-pyran-4-amine], on human 5-HT4b receptor, the Emax was 93% and the half-maximal effective concentration (EC50) was 10.9 nM. Moreover, in assay [1], the half-inhibitory concentration (IC50) was below 20 nM.
